Experimental data taken from patent US20170044208A1, “SELECTIVE GLUCOCORTICOID RECEPTOR LIGANDS” (The University of Manchester, priority 2013, published 2017).

Tests used:
[1] = molecular target: T1, Glucocorticoid Receptor (GR) (Homo sapiens, UniProt P04150); assay: Transactivation assay (MMTV-Luc reporter in HeLa cells); format: cell-based; settings: comparison table; against maximal activation seen with dexamethasone
T1 construct: Cells were transfected the next day with MMTV-Luc (5 μg) and pGL4-hRLuc (0.1 μg); endogenous in cells; host or cells: HeLa
T1 sequence (P04150 1-777): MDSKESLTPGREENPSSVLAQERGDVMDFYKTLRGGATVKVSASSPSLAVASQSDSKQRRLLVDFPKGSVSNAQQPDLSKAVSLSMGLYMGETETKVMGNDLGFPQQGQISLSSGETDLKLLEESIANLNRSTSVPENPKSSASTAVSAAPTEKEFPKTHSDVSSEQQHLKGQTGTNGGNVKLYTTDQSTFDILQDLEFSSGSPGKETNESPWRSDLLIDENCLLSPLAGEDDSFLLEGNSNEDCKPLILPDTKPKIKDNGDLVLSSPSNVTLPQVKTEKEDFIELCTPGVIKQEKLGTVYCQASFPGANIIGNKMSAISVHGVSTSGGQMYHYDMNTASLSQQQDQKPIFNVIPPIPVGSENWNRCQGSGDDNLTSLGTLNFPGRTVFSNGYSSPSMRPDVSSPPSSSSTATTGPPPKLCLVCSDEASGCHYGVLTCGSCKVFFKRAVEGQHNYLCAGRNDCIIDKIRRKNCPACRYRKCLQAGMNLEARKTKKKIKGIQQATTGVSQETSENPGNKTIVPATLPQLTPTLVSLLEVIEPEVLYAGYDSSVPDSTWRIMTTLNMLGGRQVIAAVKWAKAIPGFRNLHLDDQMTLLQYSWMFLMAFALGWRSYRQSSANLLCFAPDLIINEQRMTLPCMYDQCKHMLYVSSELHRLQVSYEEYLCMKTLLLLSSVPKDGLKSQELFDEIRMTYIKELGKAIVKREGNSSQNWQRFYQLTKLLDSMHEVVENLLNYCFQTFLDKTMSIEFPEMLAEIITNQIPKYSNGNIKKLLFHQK
Method: (§1) HeLa cells were seeded at 80×10^4 cells/dish in 100 mm dishes. Cells were transfected the next day with MMTV-Luc (5 μg) and pGL4-hRLuc (0.1 μg), in 250 μL of Opti-MEM I using FuGENE HD (15 μL). After 24 hours, cells were trypsinized and seeded into 96-well plates at a density of 8-10×10^4 cells/mL.
Following overnight incubation to allow attachment, cells were treated with the required concentration of compounds, then further incubated for 16 hours. Media was aspirated and cells lysed in 40 μL of 1×PLB.
(§2) Firefly and Renilla luciferase activity was measured using the Dual Luciferase Reporter system following the manufacturer's protocol.
(§3) IC50 and EC50 values were calculated by using GraphPad Prism 5.0. Briefly, luminescence values for luciferase were normalised using the Renilla luminescence values. The normalised values were input into GraphPad Prism 5.0. Non-linear regression analysis was carried out using the “log(concentration) vs. response” equation of the software, with a Hill slope coefficient fixed at 1.
(§4) IC50 and EC50 values are mean values in nM of all IC50/EC50 values for the compound. Max % values are mean values of the Max% activity.

NFkB = assay: Transrepression assay (NFκB-LUC reporter in HeLa cells, TNF stimulated); format: cell-based; settings: comparison table
Method: as §1, with “NFκB-LUC reporter” for “MMTV-Luc”, “0.25 mL” for “250 μL”, “in to 24-well” for “into 96-well”, “cells/mL. Following overnight incubation, cells were starved for a further 24 hours in DMEM.” for “cells/mL.”
On the day of the experiment, compounds were added to cells one hour prior to the addition of […] (0.5 ng/mL). After a further 16 hours, cells were washed twice with ice-cold PBS, then lysed with 100 μL of 1×PLB.
as §2, §3, §4

[2] = molecular target: T2, mineralocorticoid receptor (MR) (Homo sapiens, UniProt P08235); assay: Steroid receptor cross-reactivity, mineralocorticoid receptor; format: cell-based; settings: FIG. 3
T2 sequence (P08235 1-984): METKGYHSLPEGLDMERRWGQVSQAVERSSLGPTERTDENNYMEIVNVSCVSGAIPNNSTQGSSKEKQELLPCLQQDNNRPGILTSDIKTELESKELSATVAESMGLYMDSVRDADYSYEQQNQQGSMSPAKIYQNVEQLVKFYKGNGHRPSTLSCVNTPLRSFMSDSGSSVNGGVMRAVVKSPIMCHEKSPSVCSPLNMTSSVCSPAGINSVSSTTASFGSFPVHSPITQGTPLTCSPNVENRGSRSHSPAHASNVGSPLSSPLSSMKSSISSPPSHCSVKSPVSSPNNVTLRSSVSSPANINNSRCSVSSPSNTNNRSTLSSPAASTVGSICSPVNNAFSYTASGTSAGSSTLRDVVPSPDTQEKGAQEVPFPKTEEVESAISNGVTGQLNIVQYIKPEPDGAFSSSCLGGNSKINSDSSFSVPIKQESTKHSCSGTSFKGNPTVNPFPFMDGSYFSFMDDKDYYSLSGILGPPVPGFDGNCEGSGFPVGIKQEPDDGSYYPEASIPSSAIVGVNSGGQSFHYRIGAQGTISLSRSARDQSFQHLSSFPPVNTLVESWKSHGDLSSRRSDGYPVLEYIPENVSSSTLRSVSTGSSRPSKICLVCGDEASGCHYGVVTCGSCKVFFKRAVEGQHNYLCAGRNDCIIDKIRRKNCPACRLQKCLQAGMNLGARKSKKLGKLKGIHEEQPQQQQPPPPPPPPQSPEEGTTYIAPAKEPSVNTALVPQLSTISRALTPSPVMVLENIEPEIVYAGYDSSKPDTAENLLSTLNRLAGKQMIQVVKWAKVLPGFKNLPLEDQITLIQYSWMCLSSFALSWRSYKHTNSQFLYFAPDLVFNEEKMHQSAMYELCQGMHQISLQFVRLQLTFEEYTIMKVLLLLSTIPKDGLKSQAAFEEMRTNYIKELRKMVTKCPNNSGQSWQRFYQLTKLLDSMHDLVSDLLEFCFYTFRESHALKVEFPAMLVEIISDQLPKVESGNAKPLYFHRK
Description: There is a high degree of structural similarity between the various human steroid receptors. Ligands may therefore cross-react with other members of the steroid receptor family. In particular progesterone receptor and mineralocorticoid receptor show the highest structural similarity.

rat adjuvant arthritis = assay: Established rat adjuvant arthritis; format: in vivo; settings: increasing doses, FIG. 7
Description: Established rat arthritis was chosen as the most relevant predictive model for chronic inflammatory arthritis in man. The disease is initiated with a caudal injection of complete Freund's adjuvant and the disease is established after 14 days. Anti-inflammatory molecules are given orally, usually once a day and after 7 days the animals are sacrificed. Paw volumes are the primary measurement and as a secondary measure inflammatory lesions are scored at a number of sites. At autopsy adrenal, spleen and thymus weights are recorded.
The arthritis score for the rats was used in these studies, as the inflammatory disease consists of both destructive inflammatory arthritis, but also systemic manifestations.
This analysis uses the area under the curve of arthritis score over the course of the experiment to yield a single, integrated measure for each experimental animal. The area under the curve of the vehicle treated animal is indicated on the graph for comparison purposes, but marked at an arbitrary log dose.

osteoblast activity = assay: Rat bone formation assay, serum osteocalcin; format: in vivo; settings: daily oral, terminal (35 day) plasma, FIG. 9
Description: For the analysis of bone metabolism, and its regulation by orally administered GC, a rat bone formation assay was used.
Terminal (35 day) plasma was harvested, and osteocalcin measured, as an integrated measure of osteoblast activity across the skeleton.

endosteal bone formation = assay: Rat endosteal bone increment; format: in vivo; settings: daily oral dose, FIG. 10
Description: However, osteoblast activity is not uniform across the skeleton, which may result in either over, or under estimation of the steroid effect. In young, growing, rats long bone remodelling during bone growth offers an attractive model to study active bone formation as the endosteal surface has new bone formation as the diameter of the shaft decreases due to endosteal bone formation, and periosteal bone resorption. As shown in FIG. 11 (CT reconstruction) as long bones grow the diameter of the shaft at the growing end (20% mark) is greater than that towards the middle of the bone (30% and 40% marks) due to loss of bone at the outer surface, or periosteal surface, and deposition of bone, due to osteoblast action, on the inner surface, or endosteal surface.
In contrast, there was no effect of Dex124 seen until 100 mg/Kg, giving an estimated IC50 of approximately 90 mg/Kg.

GR = molecular target: T3, GR (Homo sapiens, UniProt P04150); settings: further analyses, Vayssiere et al. 1997; cited from earlier work
T3 sequence (P04150 1-777): T1 sequence (P04150 1-777)

apoptosis = settings: cited from earlier work
progesterone receptor = molecular target: T4, progesterone receptor (Homo sapiens, UniProt P06401); settings: cited from earlier work
T4 sequence (P06401 1-933): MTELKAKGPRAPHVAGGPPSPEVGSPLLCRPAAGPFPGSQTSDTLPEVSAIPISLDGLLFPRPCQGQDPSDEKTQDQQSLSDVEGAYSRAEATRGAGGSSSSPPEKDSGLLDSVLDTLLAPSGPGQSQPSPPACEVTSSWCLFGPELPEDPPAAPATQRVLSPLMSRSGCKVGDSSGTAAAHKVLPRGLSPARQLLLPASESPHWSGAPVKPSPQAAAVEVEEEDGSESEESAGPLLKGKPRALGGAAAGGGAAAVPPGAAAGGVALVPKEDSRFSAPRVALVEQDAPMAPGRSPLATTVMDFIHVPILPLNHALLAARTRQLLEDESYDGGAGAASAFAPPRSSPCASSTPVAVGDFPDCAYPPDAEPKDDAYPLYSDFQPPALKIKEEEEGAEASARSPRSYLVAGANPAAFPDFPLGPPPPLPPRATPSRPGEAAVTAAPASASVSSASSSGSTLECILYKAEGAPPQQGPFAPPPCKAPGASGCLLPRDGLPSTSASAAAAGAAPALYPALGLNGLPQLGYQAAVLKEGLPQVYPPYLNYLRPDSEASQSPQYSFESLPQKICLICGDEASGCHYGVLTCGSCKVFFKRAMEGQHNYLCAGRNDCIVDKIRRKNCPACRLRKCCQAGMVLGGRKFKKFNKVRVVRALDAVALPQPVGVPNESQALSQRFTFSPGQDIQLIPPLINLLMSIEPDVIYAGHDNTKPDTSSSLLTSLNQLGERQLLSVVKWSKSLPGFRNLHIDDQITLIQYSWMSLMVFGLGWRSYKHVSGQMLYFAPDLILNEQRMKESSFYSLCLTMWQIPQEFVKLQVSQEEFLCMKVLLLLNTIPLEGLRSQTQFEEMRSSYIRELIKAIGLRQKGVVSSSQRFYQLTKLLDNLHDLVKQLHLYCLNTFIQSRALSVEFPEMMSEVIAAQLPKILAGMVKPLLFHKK

SMILES: C[C@]12C=CC(=O)C=C1CC[C@@H]1[C@@H]2[C@@H](O)C[C@@]2(C)[C@H]1CC[C@]2(O)C(=O)CO [Pred, prednisolone]
- TA % [1]: 68%
- IC50 (NFkB; Homo sapiens, HeLa, half-maximal repression of NFkB, multiple experiments, read-out: IC50): 12.9 nM
- TR % (NFkB; maximal NFkB repression compared to Dexamethasone): 99%
- activity on mineralocorticoid receptor [2]: significant activity
- arthritis clinical score (AUC) (rat adjuvant arthritis): inhibit arthritis clinical score
- osteocalcin concentration (osteoblast activity): dose-dependent inhibition of osteocalcin concentration
- IC50 for decrease in bone increment (endosteal bone formation): 7.8 mg/kg

SMILES: C[C@@H]1C[C@H]2[C@@H]3CCC4=CC(=O)C=C[C@]4(C)[C@@]3(F)[C@@H](O)C[C@]2(C)[C@H]1C(=O)CC#N [RU24858]
- GR agonist character (GR): low potency, low efficacy full agonist
- induction of apoptosis (apoptosis): does not induce apoptosis
- progesterone receptor activation (progesterone receptor): activating the progesterone receptor
